Data taken from patent publication US20080234132A1, “Microcin B17 Analogs And Methods For Their Preparation And Use” (priority 2004, published 2008).

What was measured:
E. coli = experiment: In vivo E. coli (Table 5-C summary of haloassays); assay type: cell-based; settings: number = not active up to this concentration
Description: In vivo activity was tested using the bioassay developed by Sinha Roy, 1999, with some modifications. The Microcin-sensitive E. coli DH5α was used as the indicator strain. Lawns of cells were prepared by spreading 100 μL of a 10 mL LB culture grown at 37° C. overnight mixed with 3 mL of LSS, on LB+agar (10 g/L) plates. […] The plates were incubated at 37° C. overnight and halos of growth inhibition were qualitatively analyzed by determining their diameters (see FIG. 9).
Lawns of cells were prepared by spreading, on top of a LB+Agar plate, 3 ml of melted LSS medium (half-agar strength: 0.3 g Agar/50 ml LB) inoculated with 100 μl of a 10 ml LB overnight culture of E. coli cells grown at 37° C. […] The plates were incubated at 37° C. overnight and growth inhibition was qualitatively analysed by measuring the diameter of each halo.
Haloassays were performed as described above.

HT-29 cells = experiment: cells; assay type: cell-based, human; settings: Homo sapiens, HT-29; MTT, 24 hours; read-out: In vivo HT29 Cells (approximate IC50)
Description: (§1) Human cell cultures were initiated from frozen cell stocks (the gift of Dr J. Gavrilovic, UEA). The HT-29 line is derived from a colorectal adenocarcinoma while HeLa cells are derived from a cervical epithelial adenocarcinoma (see FIG. 35). Both human cell lines form adherent cultures and were maintained at 37° C. in T25 culture vessels as 10 mL cultures in CO2 Independent Media containing 10% foetal bovine serum (EU approved), 4 mM L-glutamine, penicillin/streptomycin (Invitrogen). A subcultivation ratio of 1:3 and 1:6 were maintained for HT-29 and HeLa lines respectively. Media was renewed every three days.
(§2) The assay to determine the effects of the heterocyclic compounds on mammalian cells is based on the cleavage of the yellow tetrazolium salt MTT to purple formazoan crystals by metabolically active cells (Roche). After incubation with MTT and solubilization, the resulting coloured solution is quantified using a scanning spectrophotometer. Each of the cell lines was trypsinised and resuspended in fresh media prior to transfer to sterile flat-bottomed microtitre plates (200 μL per well) and allowed to recover for 16 hours. Five thousand HT-29 or 7500 HeLa cells per 100 μL culture medium were incubated in the presence of the drugs in various concentrations (totalling 10 μL) for 24 hours. Cell viability was then determined by addition of MTT reagent (20 μL) in each well, as per manufacturer's instructions and incubated for a further 4 hours. Solubilization solution (100 μL) was added per well and the plates incubated overnight at 37° C. The plates were read in a spectrophotometer (scanning from 500-650 nm, signal peak at 570 nm). A representative result is illustrated in FIG. 36.

HeLa cells = experiment: cells; assay type: cell-based, human; settings: Homo sapiens, HeLa; MTT, 24 hours; read-out: In vivo HeLa Cells (approximate IC50)
Description: as §1, §2

[1] = tested on: Arabidopsis thaliana ecotype Columbia plants; experiment: Effects on A. thaliana seedlings and plants; assay type: in vivo; settings: Table 5-C
Description: The microcin derivatives were tested for efficacy in planta against Arabidopsis thaliana ecotype Columbia according to known methods (see Wall et al., 2004). Seeds were germinated on sterile media containing the appropriate peptide and the effects were observed over a three week period. […] In […] seeds, such as A. thaliana, during imbibition the quiescent seed rapidly resumes metabolic and respiratory activity. One of the first steps, as part of this process, is the initiation of mitochondrial DNA synthesis which requires DNA gyrase and which may explain the exquisite sensitivity of the germinating seeds to Peptides 1 and 2.
The leaf tissue initially turned yellow, followed by rapid necrosis of the tissue (see FIG. 32). […] The high hydrophility of Peptide 1 may preferentially allow the compound to readily diffuse through the leaf cuticle and epidermis to the mesophyll and phloem below.
The heterocyclic compounds were also spotted onto the leaves of 4 week old, tissue culture grown Arabidopsis thaliana ecotype Columbia plants (see FIG. 34, panels A-1). […] The browning and necrosis diffused through the full thickness of the leaf over the next 60 minutes (see FIG. 34, panel F) and spread towards the meristem (see FIG. 34, panels E, F, H). Complete necrosis of the meristem and newly emerged leaves, where organellar replication takes place, was complete within 24 hours (see FIG. 34, panel F).

E. coli Topoisomerase IV = E. coli Topoisomerase IV (Escherichia coli, UniProt P0AFI2+P20083); experiment: biochemical; design: purchased John Innes Enterprises (Norwich, UK); settings: read-out: Topo IV, R (relaxation reaction) IC50
E. coli Topoisomerase IV, sequence (P20083 whole entry): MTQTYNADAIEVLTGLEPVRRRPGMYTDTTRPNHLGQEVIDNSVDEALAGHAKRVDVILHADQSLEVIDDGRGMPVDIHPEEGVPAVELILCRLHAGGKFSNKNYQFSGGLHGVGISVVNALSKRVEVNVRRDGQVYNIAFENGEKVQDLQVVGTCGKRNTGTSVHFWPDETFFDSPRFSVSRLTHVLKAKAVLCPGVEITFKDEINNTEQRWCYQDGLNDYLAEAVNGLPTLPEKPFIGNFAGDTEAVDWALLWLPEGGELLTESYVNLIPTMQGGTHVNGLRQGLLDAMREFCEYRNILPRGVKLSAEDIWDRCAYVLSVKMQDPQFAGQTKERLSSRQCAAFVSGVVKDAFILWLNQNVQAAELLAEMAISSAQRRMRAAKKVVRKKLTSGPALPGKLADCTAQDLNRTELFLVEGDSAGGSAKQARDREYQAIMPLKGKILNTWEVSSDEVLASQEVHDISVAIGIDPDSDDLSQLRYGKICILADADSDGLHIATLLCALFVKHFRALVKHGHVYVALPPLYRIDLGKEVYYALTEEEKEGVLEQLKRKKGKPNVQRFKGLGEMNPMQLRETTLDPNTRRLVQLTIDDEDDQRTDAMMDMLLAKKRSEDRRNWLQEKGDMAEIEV
E. coli Topoisomerase IV, sequence (P0AFI2 whole entry): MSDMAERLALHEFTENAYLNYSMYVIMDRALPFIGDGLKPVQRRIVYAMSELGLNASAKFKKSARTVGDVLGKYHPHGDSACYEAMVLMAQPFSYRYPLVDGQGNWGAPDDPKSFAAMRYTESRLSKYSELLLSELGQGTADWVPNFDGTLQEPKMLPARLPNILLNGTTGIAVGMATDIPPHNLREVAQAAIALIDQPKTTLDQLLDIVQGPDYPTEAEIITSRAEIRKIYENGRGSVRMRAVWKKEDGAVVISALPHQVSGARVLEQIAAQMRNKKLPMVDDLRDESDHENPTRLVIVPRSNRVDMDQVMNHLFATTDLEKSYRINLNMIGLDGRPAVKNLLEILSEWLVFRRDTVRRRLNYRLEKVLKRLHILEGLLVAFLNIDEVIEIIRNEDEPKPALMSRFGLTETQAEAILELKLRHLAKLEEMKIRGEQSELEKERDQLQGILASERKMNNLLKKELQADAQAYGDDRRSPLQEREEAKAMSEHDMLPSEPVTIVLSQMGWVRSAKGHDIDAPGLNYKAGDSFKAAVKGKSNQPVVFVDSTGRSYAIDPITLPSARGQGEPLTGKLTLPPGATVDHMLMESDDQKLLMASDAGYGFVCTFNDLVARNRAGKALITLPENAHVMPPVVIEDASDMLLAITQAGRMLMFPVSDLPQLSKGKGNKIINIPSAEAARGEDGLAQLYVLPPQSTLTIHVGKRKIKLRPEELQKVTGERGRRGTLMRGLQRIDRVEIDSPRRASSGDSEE
Description: Topoisomerase IV-mediated relaxation assays and decatenation assays were performed as previously described (see Peng and Marians, 1993). […] Decatenation assays contained topoisomerase IV (4 nM), 40 mM Tris HCl pH 7.5 at 30° C., 6 mM MgCl2, 10 mM DTT, 1 mM spermidine.HCl, 100 mM potassium glutamate, 0.5 mM ATP, 0.5 mg/mL BSA, 200 ng of kinetoplast DNA, and inhibitor where appropriate.

Human topoisomerase IIα = Human topoisomerase IIα (Homo sapiens, UniProt P11388); experiment: Human topoisomerase IIα-mediated decatenation assay; assay type: biochemical; design: purchased TopoGEN Inc
Human topoisomerase IIα, sequence (P11388 whole entry): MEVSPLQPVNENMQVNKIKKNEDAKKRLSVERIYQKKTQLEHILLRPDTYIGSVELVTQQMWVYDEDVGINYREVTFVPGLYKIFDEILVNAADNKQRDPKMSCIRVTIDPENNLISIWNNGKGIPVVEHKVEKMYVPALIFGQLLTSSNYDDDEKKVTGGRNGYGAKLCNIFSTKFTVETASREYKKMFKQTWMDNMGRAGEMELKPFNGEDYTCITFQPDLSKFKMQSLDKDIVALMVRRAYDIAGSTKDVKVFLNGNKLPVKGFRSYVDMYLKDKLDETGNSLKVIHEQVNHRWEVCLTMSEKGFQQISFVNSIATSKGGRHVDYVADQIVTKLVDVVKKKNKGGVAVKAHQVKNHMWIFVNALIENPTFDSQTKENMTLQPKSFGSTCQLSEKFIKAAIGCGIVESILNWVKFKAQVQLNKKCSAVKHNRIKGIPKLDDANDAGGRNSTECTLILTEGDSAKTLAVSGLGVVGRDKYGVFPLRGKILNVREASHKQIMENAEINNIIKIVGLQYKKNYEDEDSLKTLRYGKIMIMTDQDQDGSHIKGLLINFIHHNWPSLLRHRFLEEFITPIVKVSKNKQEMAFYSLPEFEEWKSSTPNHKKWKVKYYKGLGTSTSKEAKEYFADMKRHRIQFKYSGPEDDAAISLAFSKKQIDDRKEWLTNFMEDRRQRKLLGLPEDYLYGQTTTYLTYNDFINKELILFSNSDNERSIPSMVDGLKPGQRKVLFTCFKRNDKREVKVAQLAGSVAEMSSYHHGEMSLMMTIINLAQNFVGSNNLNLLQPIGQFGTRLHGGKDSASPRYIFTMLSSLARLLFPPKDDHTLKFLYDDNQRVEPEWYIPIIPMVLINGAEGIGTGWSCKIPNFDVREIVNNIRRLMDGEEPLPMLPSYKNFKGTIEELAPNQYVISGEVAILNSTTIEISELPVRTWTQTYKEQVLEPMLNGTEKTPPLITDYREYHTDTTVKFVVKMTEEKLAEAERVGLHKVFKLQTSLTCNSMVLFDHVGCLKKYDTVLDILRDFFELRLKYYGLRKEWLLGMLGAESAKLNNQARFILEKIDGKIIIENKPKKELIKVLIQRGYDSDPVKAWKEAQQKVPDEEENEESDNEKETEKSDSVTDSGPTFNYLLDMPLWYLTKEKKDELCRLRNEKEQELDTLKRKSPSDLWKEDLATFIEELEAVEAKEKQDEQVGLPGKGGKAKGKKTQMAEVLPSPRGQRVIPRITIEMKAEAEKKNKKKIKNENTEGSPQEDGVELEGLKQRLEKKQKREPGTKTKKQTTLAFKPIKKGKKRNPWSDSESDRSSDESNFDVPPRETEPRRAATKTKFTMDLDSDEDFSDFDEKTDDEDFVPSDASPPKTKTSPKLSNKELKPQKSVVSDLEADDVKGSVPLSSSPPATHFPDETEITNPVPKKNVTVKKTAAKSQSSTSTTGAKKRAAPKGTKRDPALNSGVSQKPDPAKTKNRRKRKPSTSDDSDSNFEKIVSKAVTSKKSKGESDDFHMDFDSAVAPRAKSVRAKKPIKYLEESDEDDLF
Description: Human Topoisomerase IIα-mediated relaxation assays and decatenation assays were performed as per the manufacturer's instructions in a total of 20 μL. Relaxation assays contained Topoisomerase IIα (4.3 nM), 50 mM Tris.HCl pH 8,120 mM KCl, 10 mM MgCl2, 0.5 mM DTT, 0.5 mM ATP, 4.6 nM of supercoiled pBR322 DNA, and inhibitor where appropriate. Decatenation assays substituted the supercoiled DNA with 200 ng catenated kinetoplast DNA.
All in vitro reactions were incubated at 37° C. for 30 minutes. The DMSO concentration in each reaction was kept constant at 3.33%. Reactions were quenched with the addition of an equal volume of phenol/chloroform/isoamyl alcohol (25:24:1) and one tenth volume of loading buffer containing 40% sucrose, 100 mM Tris.HCl pH 7.5, 100 mM EDTA, 2 mg/mL bromophenol blue. The proteins were precipitated by vortexing, followed by centrifugation for 5 minutes at 16 000 g. The aqueous phase was loaded onto 1% agarose gels in Tris-acetate and were electrophoresed at 60 V for three hours in Tris-acetate buffer. The gels were stained in 1 μg/mL ethidium bromide. The gels were visualised using UV light and were documented and analysed using Syngene software.

Compound: CC(C)(C)OC(=O)NCc1nc(C(=O)O)co1 [#6]
- In vivo E. coli (E. coli): (→400 μM)
- IC50 (HT-29 cells): > 75 µM
- IC50 (HeLa cells): > 75 µM
- In vivo Plants, P (whole plants, expanded Arabidopsis leaves) [1]: P > 300 μM
- IC50 (E. coli Topoisomerase IV): > 300 µM
- Decatenation activity of eukaryotic topoisomerase IIα, sensitivity (Human topoisomerase IIα): albeit weakly
